Data as given in patent publication US9242978B2, “Phenylacetamide compound and pharmaceutical containing same” (KOWA COMPANY, LTD., priority 2012, dated 2016).
Read-outs that look alike come from different tables or passages of the source.

Tests used:
[1] = system: normal mice (C57BL/6j mice); assay: Transition in blood glucose levels after single administration of test compound to normal mice; assay type: in vivo; settings: 30 mg/kg oral, 1, 2, 4 and 6 hours after administration, FIG. 2
Procedure: A test compound (30 mg/kg, Example 5) suspended in 10% (v/v) Gelucire 44/14 (GATTEFOSSE) was orally administered to normal mice (C57BL/6j mice, CLEA Japan, Inc.). The blood glucose level was measured using an automatic blood glucose level measurement apparatus (Medisafe, TERUMO), before administration of the test compound, and 1, 2, 4, and 6 hours after administration of the test compound. Thus, the hypoglycemic action of the test compound was evaluated.

[2] = Evaluation of organ selectivity (non-binding drug concentration in liver and pancreas after oral administration); assay type: in vivo, normal mice (C57BL/6j mice); settings: mice, 150 minutes after administration
[3] = as above; assay type: in vivo, normal mice (C57BL/6j mice); settings: mice, 150 minutes after administration; for concentration at 150 min: C57BL/6j, mouse, dose 30 mg/kg
Procedure: A test compound suspended in 10% (v/v) Gelucire 44/14 (GATTEFOSSE) was orally administered to normal mice (C57BL/6j mice, CLEA Japan, Inc.). The percentages of drugs that had not bound to proteins in the liver and the pancreas, which had been obtained by the in vitro test, were […] the total concentrations of the drugs in the liver and the pancreas obtained 150 minutes after administration of the drugs, so as to calculate the non-binding concentration of the drug in each case. The ratio of the non-binding concentration of the drug in the […] was calculated, and thus, liver selectivity was evaluated. As a comparative compound, PSN-GK1 described in non-patent document 11 (corresponding to Example 94 of patent document 2) was produced according to the method described in patent document 2, and the produced comparative compound was then evaluated in the same manner as described above (in the table, the comparative compound is indicated as PSN-GK1).

[4] = biological target: T1, GST-GK derived from human liver GK (Homo sapiens, UniProt P35557); assay: In vitro GK activating action measurement test; assay type: biochemical; settings: 10 min; test compound 1 μmol/L, glucose 2.5 mmol/L, 25° C.; read-out: GK activation rate (%)
T1 construct: made in house; host or cells: Escherichia coli DH5α
T1 sequence (P35557 1-466 isoform P35557-2): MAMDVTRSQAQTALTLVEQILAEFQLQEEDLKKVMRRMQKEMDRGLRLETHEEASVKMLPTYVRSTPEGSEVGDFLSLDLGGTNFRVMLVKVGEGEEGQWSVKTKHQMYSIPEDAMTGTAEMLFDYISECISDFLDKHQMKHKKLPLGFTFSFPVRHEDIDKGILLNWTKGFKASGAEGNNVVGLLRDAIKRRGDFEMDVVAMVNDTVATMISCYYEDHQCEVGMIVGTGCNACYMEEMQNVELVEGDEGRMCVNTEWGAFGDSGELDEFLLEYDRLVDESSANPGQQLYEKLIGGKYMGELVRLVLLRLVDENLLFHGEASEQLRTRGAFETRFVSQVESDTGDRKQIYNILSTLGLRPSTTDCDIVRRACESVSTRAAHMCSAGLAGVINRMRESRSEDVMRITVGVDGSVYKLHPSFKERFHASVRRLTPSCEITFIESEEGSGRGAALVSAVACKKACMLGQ
Source text: cDNA (GenBank Accession No. NM_033507, human glucokinase, variant 2) encoding human liver-type GK polypeptide was cloned by performing a polymerase chain reaction (hereinafter referred to as “PCR”) using a human liver cDNA library (Human liver QUICK-Clone cDNA, TAKARA BIO INC.), and the thus cloned cDNA was then introduced into an expression vector (pGEX-3X, GE Healthcare Japan) for glutathione S transferase (hereinafter referred to as GST) fusion proteins. The resulting vector was introduced into Escherichia coli (Competent high DH5α, Toyobo Co., Ltd.), and the transformed Escherichia coli was then cultured at 37° C. Thereafter, Isopropyl β-D-1-thiogalactopyranoside (final concentration: 1 mmol/L, Sigma Aldrich Japan) was added to the culture, and the obtained mixture was then cultured at 30° C. for 3 hours. Thereafter, a cell mass was recovered. The recovered cell mass was subjected to freezing-and-thawing, and the resulting cell mass was then suspended in Triton-X that had been added in a final concentration of 1% to a phosphate buffer, followed by disintegration with an ultrasonic disintegrator. The homogenate was centrifuged at 33,200 rpm at 4° C. for 1 hour. Thereafter, the supernatant was recovered, and a GST-GK fusion protein was then purified using a glutathione column (GSTrap FF, GE Healthcare Japan). The obtained GST-GK fusion protein was divided into some portions each having a small volume, and the thus divided proteins were then preserved at −80° C.
A GK assay was carried out at 25° C. at a final incubation volume of 100 μL using a flat-bottom 96-well assay plate. An assay buffer comprised 25 mmol/L Hepes buffer (pH 7.1), 25 mmol/L KCl, 2.5 mmol/L or 10 mmol/L D-glucose, 5 mmol/L ATP, 1 mmol/L nicotinamide adenine dinucleotide phosphate (abbreviated as NADP), 2 mmol/L MgCl2, 1 mmol/L dithiothreitol (DTT), 2 units/mL glucose-6 phosphate dehydrogenase (G6PDH), and 1 μg/mL GST-GK derived from human liver GK. ATP, G6PDH, and NADP were purchased from Roche Diagnostics. […] The thus mixed solution was preincubated in an incubator in which the temperature was controlled at 25° C. for 15 minutes. Subsequently, the reaction was initiated by adding 10 μL of the GST-GK solution to the reaction mixture, resulting in a final concentration of 0.1 μg/mL. After initiation of the reaction, an increase in the optical concentration at 340 nm (OD340) was monitored with a microplate spectrophotometer (Varsamax, Molecular Devices Japan K. K.) every 10 seconds over an incubation period of 10 minutes. An inclination of the OD340 increase was defined as raw data. The GK activating rate was indicated as a numerical value obtained from the expression: (Inclination of OD340 increase by addition of the test compound)/(inclination of OD340 increase without addition of the test compound). The results of the GK activating rate obtained at a test compound concentration of 1 μmol/L under the condition of a glucose concentration of 2.5 mmol/L are shown in the following table 2.

[5] = system: normal mice (C57BL/6j mice); assay: Oral glucose tolerance test with normal mice after single administration of test compound; assay type: in vivo; settings: 30 mg/kg oral, 2 g/kg glucose oral 30 minutes later, FIG. 1
Procedure: The test compound (Example 5) (30 mg/kg) suspended in 10%(v/v) Gelucire44/14 (GATTEFOSSE) was orally administered to normal mice (C57BL/6j mice, CLEA Japan, Inc.). Thirty minutes later, 2 g/kg glucose was orally administered to the mice. The blood glucose level was measured using an automatic blood glucose level measurement apparatus (Medisafe, TERUMO), before administration of the test compound, 25 minutes after administration of the test compound, and 15, 30, 60, and 120 minutes after administration of glucose. Thus, the action of the test compound to lower blood glucose level was evaluated.

normal mice = settings: low dose; non-patent document 11; cited from earlier work

| SMILES | blood glucose level after single administration versus solvent alone [1] | selectivity ratio at 150 min ([2]; C57BL/6j, mouse, liver and pancreas, dose 30 mg/kg) | concentration at 150 min ([3]; liver, read-out: Non-binding concentration (ng/mL) Liver) [ng/mL] | concentration at 150 min ([3]; pancreas, read-out: Non-binding concentration (ng/mL) Pancreas) [ng/mL] | activity at 1 µM [4] [%] | blood glucose level in oral glucose tolerance test versus solvent alone [5] | hypoglycemic action on normal mice (normal mice) | Selectivity Liver/pancreas ([2]; dose 1 mg/kg) | Selectivity Liver/pancreas ([2]; dose 10 mg/kg) | Non-binding concentration (ng/mL) Liver ([3]; dose 1 mg/kg) [ng/mL] | Non-binding concentration (ng/mL) Pancreas ([3]; dose 1 mg/kg) [ng/mL] | Non-binding concentration (ng/mL) Liver ([3]; dose 3 mg/kg) [ng/mL] | Non-binding concentration (ng/mL) Pancreas ([3]; dose 3 mg/kg) [ng/mL] | Selectivity Liver/pancreas ([3]; dose 3 mg/kg) | Non-binding concentration (ng/mL) Liver ([3]; dose 10 mg/kg) [ng/mL] | Non-binding concentration (ng/mL) Pancreas ([3]; dose 10 mg/kg) [ng/mL] |
| --- | --- | --- | --- | --- | --- | --- | --- | --- | --- | --- | --- | --- | --- | --- | --- | --- |
| CCNC(=O)N1CC[C@H](C[C@@H](C(=O)Nc2ncc(F)s2)c2ccc(S(=O)(=O)C3CC3)cc2)C1 [Example 5, (S)-3-((R)-2-(4-(cyclopropylsulfonyl)phenyl)-3-((5-fluorothiazol-2-yl)amino)-3-oxopropyl)-N-ethylpyrrolidine-1-carboxamide] | almost equal to the blood glucose level of the mice orally administered with the solvent alone | 27 | 47 | 1.8 | 561 | lower than that of the mice orally administered with the solvent alone |  |  |  |  |  |  |  |  |  |  |
| O=C(Nc1ncc(F)s1)[C@H](CC1CCOCC1)c1ccc(S(=O)(=O)C2CC2)cc1 [PSN-GK1, reference compound] |  |  |  |  |  |  | has a hypoglycemic action on normal mice | 1.0 | 1.2 | 0.56 | 0.58 | 1.4 | 1.7 | 0.8 | 7.4 | 6.0 |
